Assays:
Details in all cases: 72 h
Calu-3 [1] = assay: drug sensitivity score (DSS) for viability; higher = more toxic; extreme values may be limits of the assay
Vero E6 [2] = assay: as above
Caco-2 [3] = assay: as above
HepG2 [4] = assay: as above
U2OS [5] = assay: as above
Calu-3 [6] = assay: cell viability relative to DMSO; higher = less toxic
Vero E6 [7] = assay: as above
Caco-2 [8] = assay: as above
HepG2 [9] = assay: as above
U2OS [10] = assay: as above
Calu-3 [11] = assay: relative viability EC50 (midpoint between 100% and the lowest measured viability); higher = less toxic
Caco-2 [12] = assay: as above
HepG2 [13] = assay: as above
U2OS [14] = assay: as above
Vero E6 [15] = assay: as above

Compound | drug sensitivity score (Calu-3 [1]) | drug sensitivity score (Vero E6 [2]) | drug sensitivity score (Caco-2 [3]) | drug sensitivity score (HepG2 [4]) | drug sensitivity score (U2OS [5]) | cell viability (Calu-3 [6]; 1 nM) | cell viability (Calu-3 [6]; 10 nM) | cell viability (Calu-3 [6]; 100 nM) | cell viability (Calu-3 [6]; 1000 nM) | cell viability (Calu-3 [6]; 10000 nM) | cell viability (Vero E6 [7]; 1 nM) | cell viability (Vero E6 [7]; 10 nM) | cell viability (Vero E6 [7]; 100 nM) | cell viability (Vero E6 [7]; 1000 nM) | cell viability (Vero E6 [7]; 10000 nM) | cell viability (Caco-2 [8]; 1 nM) | cell viability (Caco-2 [8]; 10 nM) | cell viability (Caco-2 [8]; 100 nM) | cell viability (Caco-2 [8]; 1000 nM) | cell viability (Caco-2 [8]; 10000 nM) | cell viability (HepG2 [9]; 1 nM) | cell viability (HepG2 [9]; 10 nM) | cell viability (HepG2 [9]; 100 nM) | cell viability (HepG2 [9]; 1000 nM) | cell viability (HepG2 [9]; 10000 nM) | cell viability (U2OS [10]; 1 nM) | cell viability (U2OS [10]; 10 nM) | cell viability (U2OS [10]; 100 nM) | cell viability (U2OS [10]; 1000 nM) | cell viability (U2OS [10]; 10000 nM) | relative viability EC50 (Calu-3 [11]) | relative viability EC50 (Caco-2 [12]) | relative viability EC50 (HepG2 [13]) | relative viability EC50 (U2OS [14]) | relative viability EC50 (Vero E6 [15])
CO[C@H]1/C=C/O[C@@]2(C)Oc3c(C)c(O)c4c(O)c(c(/C=N/N5CCN(C)CC5)c(O)c4c3C2=O)NC(=O)/C(C)=C\C=C\[C@H](C)[C@H](O)[C@@H](C)[C@@H](O)[C@@H](C)[C@H](OC(C)=O)[C@@H]1C [rifampin] | 0 | 1.2 | 0 | 0.1 | 0.3 | 99.5% | 99.6% | 98.7% | 99.8% | 102% | 68.7% | 97.8% | 70.2% | 103% | 64.7% | 88.9% | 88.7% | 90.8% | 88.5% | 105% | 97.9% | 102% | 104% | 89.4% | 92.4% | 96% | 105% | 98.2% | 97.2% | 86.9% | > 10 µM | > 10 µM | > 10000 nM | > 10 µM | 
Cc1cc(C)c(/C=C2\C(=O)Nc3ccccc32)[nH]1 [semaxanib] | 0 | 0 | 0 | 2.4 | 0 | 93.2% | 87.4% | 93.6% | 94.9% | 102% | 103% | 102% | 98.7% | 105% | 106% | 103% | 90.6% | 100% | 90.4% | 91.3% | 99% | 96.2% | 91% | 92% | 67.1% | 99.7% | 96.6% | 100% | 99.4% | 97.4% | > 10 µM | > 10 µM |  | > 10 µM | > 10 µM
O=C1NCCN1CCN1CCC(c2cn(-c3ccc(F)cc3)c3ccc(Cl)cc23)CC1 [sertindole] | 0.1 | 3.3 | 4.6 | 6.4 | 0.5 | 88.1% | 112% | 96.9% | 92.2% | 90% | 106% | 118% | 105% | 88.6% | 64.5% | 97.1% | 98.3% | 89.1% | 80.7% | 56.6% | 96.7% | 105% | 93.4% | 87.7% | 20.9% | 93.8% | 95.3% | 94.6% | 99.8% | 81% | > 10 µM |  | 1950 nM | > 10 µM | 

Source: the supplement of paper PMC13380429
